Marks after values point to notes of the source that are not given here.
Columns and labels:
[1] = Test for permeability across MDR1; format: in vitro ADME; conditions: dog, MDCK-MDR1
Procedure: Test for Permeability Across MDR1
A sample for test was dissolved in dimethyl sulfoxide (DMSO) or other suitable solvents, to be prepared into 10 mM stock solution. A suitable internal standard (IS) was dissolved in acetonitrile (ACN) or other organic solvents as a stop solution. Specific information would be described in a research report.
Fenoterol, propranolol, and digoxin acted as low-permeability control, high-permeability control, and P-gp substrate in the present research. The stock solutions of these compounds were prepared with DMSO, stocked at 2-8° C., and valid for use within 3 months.
In the present project, a Hank's balanced salt buffer containing 10 mM HEPES was used as a transport buffer.
MDR1-MDCK II cells were cultivated using α-MEM culture media (α-Minimum Essential Media), with a culture condition of 37±1° C., 5% CO2, and saturated relative humidity. Afterwards, the cells were inoculated into a BD Transwell-96-well plate (BD Gentest), with an inoculation density of 2.3×10^5 cells/cm^2, then the cells were placed in a carbon dioxide incubator to be incubated for 4-7 days, and then used for a transport experiment.
A solution to be used was placed in a 37±1° C. water bath kettle to be pre-incubated for 30 minutes. The donor solution and the receiver solution were respectively added to corresponding sides of wells of cell plate (to an apical side and a basolateral side, 75 μL and 250 μL of samples were added respectively), and experiment of bidirectional transport was started. After the addition of the samples, the cell plate was placed in a 37±1° C., 5% CO2 incubator with saturated relative humidity to be incubated for 150 minutes.
The samples were all centrifuged at 3220 g for 10 minutes after being shaken in a vortex manner. A suitable volume of a supernatant was transferred to a sample analyzing plate. If analysis was not carried out immediately after the plate was sealed, the plate was stored at 2-8° C. The analysis was carried out through a method of LC/MS/MS.
The sample for test, fenoterol control, propranolol control, and digoxin were analyzed in a semiquantitative manner, and specific values of analytes to a peak area of the internal standard were taken as concentration of the controls.

[2] = target: T1, recombinant human IDO1 enzyme (Homo sapiens, UniProt P14902); test: Test of hIDO1 for enzymatic activity in vitro (NFK Green fluorescence); format: biochemical
T1 construct: purchased NTRC (Netherlands Translational Research Center) NTRC-hIDO-10K
Procedure: 1. Test of hIDO1 for Enzymatic Activity In Vitro
1.1 Purpose of Experiment:
Changes in production of NFK, an IDO1 enzymatic metabolite were detected with NFK Green™ fluorescent molecules. With an IC50 value of a compound as an index, an inhibitory effect of the compound on recombinant human IDO1 enzyme was evaluated.
The compound was diluted with dimethyl sulfoxide (DMSO) to 1 mM, with 10 gradients, each 3-fold dilution, in duplicate. 48 μL of 50 mM phosphate buffer, having pH of 6.5, was transferred by the Bravo automatic liquid processing platform to the compound plate. Then 2 μL of an already diluted compound/DMSO solution was added. After even mixing, 10 μL of the resultant mixture was transferred to the enzymatic reaction plate.
IDO1 enzyme was diluted to 20 nM in a reaction buffer (50 mM phosphate buffer with pH of 6.5, 0.1% of Tween-20, 2% of glycerol, 20 mM ascorbic acid, 20 μg/ml catalase, and 20 μM methylene blue), 20 μL of the diluted IDO1 enzyme was transferred to the enzymatic reaction plate, and incubated at 23° C. for 30 minutes. 10 μL of 400 μM L-type tryptophan substrate was added to start reaction. The incubation lasted at 23° C. for 90 minutes. 10 μL of NFK Green™ fluorescent dye was added. The resultant mixture was sealed with the plate sealing film. After incubation at 37° C. for 4 hours, an Envision multi-functional plate reader was used for reading (Ex 400 nm/Em 510 nm).
A reference well to which the IDO1 enzyme was added but no compound was added was set to have an inhibition rate of 0%, and a reference well to which no IDO1 enzyme was added was set to have an inhibition rate of 100%. Data was analyzed with XLFit 5 to calculate an IC50 value of the compound.

mice colon cancer CT26 = test: Efficacy against mice colon cancer CT26 transplanted tumor; format: in vivo, BALB/c mice; conditions: for Inhibitory Rate for Tumor Weight / Tumor Weight / mean tumor weight compared with the control group: end of experiment; for tumor inhibitory effect compared at the same dose: same dose of 100 mg/kg
Procedure: Research on Efficacy of Anti-Mice Colon Cancer Ct26
In the present research, colon cancer CT26 models were employed to compare differences between compound 231 and compounds 360 and 117 in antitumor effects.
Therefore, the dose of the two compounds, compound 360 and compound 117, in the present experiment was set as 100 mg/kg. In order to observe dose-efficacy relevance of 231, a dose of the compound 231 was set as 25, 50, 100, 200 mg/kg in the present experiment. All drugs were administered by gavage, twice a day.
According to document reports, mice colon cancer CT26 is a commonly used tumor model for evaluating immunological drugs. […] Therefore, CT26-bearng BALB/c models were chosen in the present experiment for research on efficacy and tissue distribution.
In a super-clean bench, each mouse was subcutaneously inoculated with 0.2 mL of the tumor cell suspension at shoulder, with an inoculation amount of 1×10^5 per mouse. When a tumor block grew to be 500-1000 mm^3, the tumor block was taken out, cut into pieces with scissors, and subcutaneously inoculated at shoulder at the mouse's back using a subcutaneous embedding implantation puncture needle (with a diameter of 1.2 mm).
The day of tumor inoculation was defined as Day 0, and the inoculated animals were grouped randomly on the day of inoculation. One day after the inoculation (Day 1), the administration was started. The experiment had 7 groups in total, with 12 animals in each group. See details in Table 12 for information on animal grouping and administration.
It was an experimental cycle when the tumor in the control group grew to have a volume of 3000 mm^3. The following indexes were observed during the experiment.
(1) As for tumor growth curve, when the tumor was measurable, a maximum diameter (a) and a minimum diameter (b) of the tumor were measured once every other day, to calculate the tumor volume (a calculation formula is V=½×a×b^2), and anti-tumor effect of the tested drug was observed dynamically.
(4) As for tumor inhibitory rate, when the experiment was ended, the mice were killed by cervical dislocation, the tumor blocks were taken out and weighed, to calculate the tumor inhibitory rate, where tumor inhibitory rate=(mean tumor weight of the control group-mean tumor weight of the treatment group)/mean tumor weight of the control group×100%), and the tumor blocks were photographed with a digital camera for recording.

T1 sequence (P14902 whole entry): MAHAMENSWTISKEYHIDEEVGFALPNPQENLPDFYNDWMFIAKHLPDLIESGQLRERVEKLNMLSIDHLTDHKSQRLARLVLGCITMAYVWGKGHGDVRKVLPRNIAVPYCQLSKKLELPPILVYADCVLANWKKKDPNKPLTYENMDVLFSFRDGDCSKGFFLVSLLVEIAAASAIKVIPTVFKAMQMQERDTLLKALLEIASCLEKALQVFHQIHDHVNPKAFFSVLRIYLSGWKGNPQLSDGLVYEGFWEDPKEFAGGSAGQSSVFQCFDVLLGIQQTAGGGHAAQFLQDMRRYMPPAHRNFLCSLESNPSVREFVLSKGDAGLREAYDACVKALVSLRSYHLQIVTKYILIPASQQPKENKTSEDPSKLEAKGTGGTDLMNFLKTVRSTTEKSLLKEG

**Q.** Which results are given for `CC(=O)NCCSc1nonc1/C(=N/O)Nc1ccc(F)c(Br)c1` [Compound 0227]?
**A.** Papp A→B at 150 min, 2 µM [1]: 12.5 ×10⁻⁶ cm/s; Papp B→A at 150 min, 2 µM [1]: 18 ×10⁻⁶ cm/s; IC50 [2]: 59.3 nM

**Q.** What does the source list for `NC(=O)NCCSc1nonc1/C(=N/O)Nc1ccc(F)c(Br)c1` [Compound 0231]?
**A.** tumor volume compared with the control group (mice colon cancer CT26; 25 mg/kg (low dose) gavage BID): remarkably less than that of the control group at Day 10 and Day 12; Mean Tumor Volume (mice colon cancer CT26; 25 mg/kg gavage BID, D12): 411.7 ± 275.4* mm^3; Mean Tumor Volume (mice colon cancer CT26; 25 mg/kg gavage BID, D14): 721.9 ± 575.3 mm^3; Mean Tumor Volume (mice colon cancer CT26; 25 mg/kg gavage BID, D17): 1471.2 ± 1269.4 mm^3; Mean Tumor Volume (mice colon cancer CT26; 25 mg/kg gavage BID, Day8): 69.5 ± 21.9 mm^3; Mean Tumor Volume (mice colon cancer CT26; 25 mg/kg gavage BID, Day10): 229.1 ± 76.7* mm^3; Inhibitory Rate for Tumor Weight (mice colon cancer CT26; 25 mg/kg gavage BID): 25.9%; Tumor Weight (mice colon cancer CT26; 25 mg/kg gavage BID): 1.49 ± 1.16 g; Mean Tumor Volume (mice colon cancer CT26; 50 mg/kg gavage BID, D12): 436.8 ± 204.9* mm^3; Mean Tumor Volume (mice colon cancer CT26; 50 mg/kg gavage BID, D14): 661.5 ± 255.6* mm^3; Mean Tumor Volume (mice colon cancer CT26; 50 mg/kg gavage BID, D17): 1242.2 ± 500.9* mm^3; Mean Tumor Volume (mice colon cancer CT26; 50 mg/kg gavage BID, Day8): 94.5 ± 52.5 mm^3; Mean Tumor Volume (mice colon cancer CT26; 50 mg/kg gavage BID, Day10): 234.6 ± 117.6* mm^3; Inhibitory Rate for Tumor Weight (mice colon cancer CT26; 50 mg/kg gavage BID): 29.2%; Tumor Weight (mice colon cancer CT26; 50 mg/kg gavage BID): 1.42 ± 0.56 g; Mean Tumor Volume (mice colon cancer CT26; 100 mg/kg gavage BID, D12): 372.4 ± 308.9* mm^3; Mean Tumor Volume (mice colon cancer CT26; 100 mg/kg gavage BID, D14): 598.6 ± 442.3* mm^3; Mean Tumor Volume (mice colon cancer CT26; 100 mg/kg gavage BID, D17): 1195.4 ± 779.8* mm^3; Mean Tumor Volume (mice colon cancer CT26; 100 mg/kg gavage BID, Day8): 97.9 ± 86.9 mm^3; Mean Tumor Volume (mice colon cancer CT26; 100 mg/kg gavage BID, Day10): 168.2 ± 145.5* mm^3; Inhibitory Rate for Tumor Weight (mice colon cancer CT26; 100 mg/kg gavage BID): 34.0%; Tumor Weight (mice colon cancer CT26; 100 mg/kg gavage BID): 1.32 ± 1.09 g; Mean Tumor Volume (mice colon cancer CT26; 200 mg/kg gavage BID, D12): 300.4 ± 231.8* mm^3; Mean Tumor Volume (mice colon cancer CT26; 200 mg/kg gavage BID, D14): 512.2 ± 351.8* mm^3; Mean Tumor Volume (mice colon cancer CT26; 200 mg/kg gavage BID, D17): 909.7 ± 544.6* mm^3; Mean Tumor Volume (mice colon cancer CT26; 200 mg/kg gavage BID, Day8): 74.2 ± 32.2 mm^3; Mean Tumor Volume (mice colon cancer CT26; 200 mg/kg gavage BID, Day10): 160.5 ± 114.9* mm^3; Inhibitory Rate for Tumor Weight (mice colon cancer CT26; 200 mg/kg gavage BID): 56.8%; Tumor Weight (mice colon cancer CT26; 200 mg/kg gavage BID): 0.87 ± 0.74 g; mean tumor weight compared with the control group (mice colon cancer CT26; 200 mg/kg gavage BID): remarkably less than that of the control group; mean tumor weight compared with the control group (mice colon cancer CT26; 25, 50, 100 mg/kg gavage BID): less than that of the control group, but without statistical difference; tumor inhibitory effect, dose dependence (mice colon cancer CT26; 25, 50, 100, 200 mg/kg gavage BID): dose-dependent manner; tumor volume compared with the control group (mice colon cancer CT26; dose equal to or greater than 50 mg/kg, Day 10 to end of test): always remarkably less than that of the control group; tumor inhibitory effect compared at the same dose (mice colon cancer CT26): equivalent tumor inhibitory effect; Papp A→B at 150 min, 2 µM [1]: 3.79 ×10⁻⁶ cm/s; Papp B→A at 150 min, 2 µM [1]: 17.9 ×10⁻⁶ cm/s; IC50 [2]: 42.2 nM

**Q.** Which results are given for `NS(=O)(=O)NCCNc1nonc1C(=NO)Nc1ccc(F)c(Br)c1` [Compound 360, INCB024360, reference compound]?
**A.** mean tumor volume compared with the control group during the test (mice colon cancer CT26; 100 mg/kg gavage BID): always less than that of the control group, but without statistical difference; Mean Tumor Volume (mice colon cancer CT26; 100 mg/kg gavage BID, D12): 512.0 ± 240.2 mm^3; Mean Tumor Volume (mice colon cancer CT26; 100 mg/kg gavage BID, D14): 949.2 ± 773.3 mm^3; Mean Tumor Volume (mice colon cancer CT26; 100 mg/kg gavage BID, D17): 1531.0 ± 606.0 mm^3; Mean Tumor Volume (mice colon cancer CT26; 100 mg/kg gavage BID, Day8): 95.2 ± 36.6 mm^3; Mean Tumor Volume (mice colon cancer CT26; 100 mg/kg gavage BID, Day10): 303.5 ± 233.3 mm^3; Inhibitory Rate for Tumor Weight (mice colon cancer CT26; 100 mg/kg gavage BID): 29.5%; Tumor Weight (mice colon cancer CT26; 100 mg/kg gavage BID): 1.41 ± 0.81 g; mean tumor weight compared with the control group (mice colon cancer CT26; 100 mg/kg gavage BID): less than that of the control group, but without statistical difference; tumor inhibitory rate for CT26 (mice colon cancer CT26; preliminary experimental research, gavage 100 mg/kg bid): 30-50%; tumor inhibitory effect compared at the same dose (mice colon cancer CT26): equivalent tumor inhibitory effect; Papp A→B at 150 min, 2 µM [1]: 1.61 ×10⁻⁶ cm/s; Papp B→A at 150 min, 2 µM [1]: 13.3 ×10⁻⁶ cm/s
